# Reference: patent US8158647B2, “Substituted pyrrolopyridines and pyrazolopyridines as kinase modulators” (SGX Pharmaceuticals, Inc., priority 2007, dated 2012)
# Columns and labels:
# [1] = target: T1, purified and unphosphorylated T315I Abl kinase domain (ABL_T315I_0P) (Mus musculus, UniProt P00520, T315I); test: c-Abl T315I (unphosphorylated kinase domain) pyruvate kinase/lactate dehydrogenase coupled enzyme assay; type: biochemical; settings: 10 μM ATP
# T1 construct: The c-Abl T3151 KD (kinase domain) was purified as follows; Met-Ser-Leu (vector-derived residues) (N); made in house; host or cells: E. coli BL21(DE3) strains (Codon+RIL, or pSA0145 for the lambda phosphatase co-expression plasmid)
# T1 sequence (P00520 242-493 T315I limits assumed): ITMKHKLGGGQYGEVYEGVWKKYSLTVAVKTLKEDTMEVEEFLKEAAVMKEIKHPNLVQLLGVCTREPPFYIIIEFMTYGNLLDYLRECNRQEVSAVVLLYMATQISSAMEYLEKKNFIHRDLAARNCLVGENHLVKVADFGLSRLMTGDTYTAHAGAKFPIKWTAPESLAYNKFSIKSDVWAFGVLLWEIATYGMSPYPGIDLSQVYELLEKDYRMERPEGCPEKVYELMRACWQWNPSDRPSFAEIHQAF
# ABL T315I BAF3 cells = target: T2, ABL T315I BAF3 cells (Homo sapiens, UniProt P00519, T315I, cells depend on it); test: 96-well XTT cell survival assay, BaF3 ABL T315I; type: cell-based; settings: 72 hours, read-out: CELL BIO ABL T315I BAF3 XTT (IC50)
# T2 construct: ABL T315I BAF3; fused on or other part: P11274 (Breakpoint cluster region protein)
# Procedure, shortened: (§1)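 Ba/F3 cells in RPMI 1640 with 10% FBS (IL-3 medium for maintenance) were seeded at 5000-8000 cells/well and exposed to compound dilutions in duplicate for 72 h at 37° C. Viability read by XTT/PMS, absorbance 405 nm minus 650 nm after 2-6 h.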
# ABL P210WT BAF3 cells = target: T3, ABL P210WT BAF3 cells (Homo sapiens, UniProt P00519); test: 96-well XTT cell survival assay, BaF3 ABL P210WT; type: cell-based; settings: ABL P210 WT, 72 hours, read-out: CELL BIO ABL P210WT BAF3 XTT (IC50)
# T3 construct: ABL P210WT BAF3; fused on or other part: P11274 (Breakpoint cluster region protein)
# Procedure, shortened: as §1
SMILES,ABL_T315I_0P (IC50) [1],GI50 (ABL T315I BAF3 cells),GI50 (ABL P210WT BAF3 cells)
"COc1cc(F)c(F)cc1-c1c[nH]c2ncc(-c3cnc(N)c(C(=O)N(C)C)c3)c(Cl)c12 [2-Amino-5-[4-chloro-3-(4,5-difluoro-2-methoxy-phenyl)-1H-pyrrolo[2,3-b]pyridin-5-yl]-N,N-dimethyl-nicotinamide]",D (<0.01 μM),10 to 100 nM,10 to 100 nM
"COc1ccccc1-c1c[nH]c2ncc(Br)c(SC)c12 [5-Bromo-3-(2-methoxy-phenyl)-4-methylsulfanyl-1H-pyrrolo[2,3b]pyridine]",B (1.0-0.1 μM),> 1000 nM,> 1000 nM
"CN(C)C1CCN(C(=O)c2cc(-c3cnc4[nH]cc(-c5cccc(F)c5)c4c3Cl)cnc2N)C1 (stereo not drawn) [{2-Amino-5-[4-chloro-3-(3-fluoro-phenyl)-1H-pyrrolo[2,3-b]pyridin-5-yl]-pyridin-3-yl}-(3-dimethylamino-pyrrolidin-1-yl)-methanone]",D (<0.01 μM),100 to 1000 nM,100 to 1000 nM
"COc1ccccc1-c1c[nH]c2ncc(-c3cncc(C(O)C(=O)N(C)C)c3)c(SC)c12 (stereo not drawn) [2-Hydroxy-2-{5-[3-(2-methoxy-phenyl)-4-methylsulfanyl-1H-pyrrolo[2,3-b]pyridin-5-yl]-pyridin-3-yl}-N,N-dimethyl-acetamide]",D (<0.01 μM),10 to 100 nM,100 to 1000 nM
"COc1ccccc1-c1c[nH]c2ncc(-c3ccc(N)c(C(=O)N(C)C)c3)c(Cl)c12 [2-Amino-5-[4-chloro-3-(2-methoxy-phenyl)-1H-pyrrolo[2,3-b]pyridin-5-yl]-N,N-dimethyl-benzamide]",D (<0.01 μM),< 10 nM,< 10 nM
"Nc1ncc(-c2cnc3[nH]cc(-c4cccc(F)c4)c3c2Cl)cc1C(=O)N1CC(O)C1 [{2-Amino-5-[4-chloro-3-(3-fluoro-phenyl)-1H-pyrrolo[2,3-b]pyridin-5-yl]-pyridin-3-yl}-(3-hydroxy-azetidin-1-yl)-methanone]",D (<0.01 μM),100 to 1000 nM,100 to 1000 nM
"CN(C)C(=O)c1cncc(-c2cnc3[nH]cc(-c4ccccc4Cl)c3c2Cl)c1 [5-[4-Chloro-3-(2-chloro-phenyl)-1H-pyrrolo[2,3-b]pyridin-5-yl]-N,N-dimethyl-nicotinamide]",D (<0.01 μM),> 1000 nM,100 to 1000 nM
"Nc1ncc(-c2cnc3[nH]cc(-c4cc(F)ccc4F)c3c2Cl)cc1C(=O)N1CCCC1CO (stereo not drawn) [{2-Amino-5-[4-chloro-3-(2,5-difluoro-phenyl)-1H-pyrrolo[2,3-b]pyridin-5-yl]-pyridin-3-yl}-(2-hydroxymethyl-pyrrolidin-1-yl)-methanone]",D (<0.01 μM),100 to 1000 nM,100 to 1000 nM
"CN(C)C(=O)C(O)c1cncc(-c2cnc3[nH]cc(-c4ccccc4F)c3c2Cl)c1 (stereo not drawn) [2-{5-[4-Chloro-3-(2-fluoro-phenyl)-1H-pyrrolo[2,3-b]pyridin-5-yl]-pyridin-3-yl}-2-hydroxy-N,N-dimethyl-acetamide]",D (<0.01 μM),100 to 1000 nM,100 to 1000 nM
"CNc1c(-c2cncc(C(O)C(=O)N(C)C)c2)cnc2[nH]cc(-c3ccccc3OC)c12 (stereo not drawn) [2-Hydroxy-2-{5-[3-(2-methoxy-phenyl)-4-methylamino-1H-pyrrolo[2,3-b]pyridin-5-yl]-pyridin-3-yl}-N,N-dimethyl-acetamide]",D (<0.01 μM),100 to 1000 nM,100 to 1000 nM
"CN(C)C(=O)C(O)c1cncc(-c2cnc3[nH]cc(-c4ccc(F)cc4)c3c2Cl)c1 (stereo not drawn) [2-{5-[4-Chloro-3-(4-fluoro-phenyl)-1H-pyrrolo[2,3-b]pyridin-5-yl]-pyridin-3-yl}-2-hydroxy-N,N-dimethyl-acetamide]",C (0.1-0.01 μM),> 1000 nM,100 to 1000 nM
"CN(C)C(=O)Cc1cncc(-c2cnc3[nH]cc(-c4ccccc4)c3c2Cl)c1 [2-[5-(4-Chloro-3-phenyl-1H-pyrrolo[2,3-b]pyridin-5-yl)-pyridin-3-yl]-N,N-dimethyl-acetamide]",D (<0.01 μM),> 1000 nM,> 1000 nM
